Test results published in ChEMBL document CHEMBL1201862, “PubChem BioAssay data set” (2004).
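Dose response: 5 concentrations. Exposure: 48 h. Format: 96-well plates. Endpoint: linear interpolation; highest concentration if not reached. Abbreviation: GI50, concentration required for 50% inhibition of growth.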 Active and inactive are the calls of the source. Rule as the data show it: active = GI50 up to about 1.1 µM and inactive = higher.

What was measured:
Assay in all cases: DTP human tumour cell line panel, 48 h
HOP-62 = tested on: HOP-62
OVCAR-5 = tested on: OVCAR-5
EKVX = tested on: EKVX
BT-549 = tested on: BT-549
SK-MEL-28 = tested on: SK-MEL-28
NCI-H23 = tested on: NCI-H23
LOX IMVI = tested on: LOX IMVI
ACHN = tested on: ACHN
OVCAR-3 = tested on: OVCAR-3
SK-MEL-2 = tested on: SK-MEL-2
TK-10 = tested on: TK-10
SF-295 = tested on: SF-295
Malme-3M = tested on: Malme-3M
U-251 = tested on: U-251
M14 = tested on: M14
T47D = tested on: T47D
SK-OV-3 = tested on: SK-OV-3
CCRF-CEM = tested on: CCRF-CEM
SNB-75 = tested on: SNB-75
NCI-H226 = tested on: NCI-H226

Measured: GI50

COC1=C(OC)C(=O)C(Cc2c(Cl)nc3sc(C)cn23)=C(C)C1=O
inactive: HOP-62 19.3 µM | OVCAR-5 18.2 µM | EKVX 17.3 µM | BT-549 18 µM | SK-MEL-28 17.9 µM | NCI-H23 13.7 µM | LOX IMVI 11.7 µM | ACHN 17.1 µM | OVCAR-3 12.2 µM | SK-MEL-2 22.3 µM | TK-10 16.4 µM | SF-295 16.6 µM | Malme-3M 12.2 µM | U-251 17.9 µM | M14 17.1 µM | T47D 23.9 µM | SK-OV-3 17.5 µM | CCRF-CEM 3.02 µM

COc1cc2c(cc1-c1coc3cc(OCC=C(C)C)ccc3c1=O)OCO2
inactive: HOP-62 29.8 µM | OVCAR-5 55.6 µM | EKVX 24.3 µM | SNB-75 31 µM | BT-549 16.8 µM | SK-MEL-28 45.8 µM | NCI-H23 24.4 µM | LOX IMVI 19.3 µM | ACHN 29.3 µM | OVCAR-3 61.2 µM | SK-MEL-2 48.1 µM | TK-10 48.4 µM | SF-295 33.6 µM | U-251 35.2 µM | M14 26.8 µM | T47D 17.7 µM | SK-OV-3 41.5 µM | CCRF-CEM > 10 µM

Nc1nc(Cl)c(CO)c(NCC2(CO)CCC2)n1
inactive: HOP-62 > 100 µM | OVCAR-5 > 100 µM | EKVX > 100 µM | SNB-75 > 100 µM | BT-549 > 100 µM | SK-MEL-28 > 100 µM | NCI-H23 41.9 µM | LOX IMVI > 100 µM | ACHN > 100 µM | OVCAR-3 > 100 µM | TK-10 > 100 µM | SF-295 > 100 µM | Malme-3M > 100 µM | U-251 > 100 µM | NCI-H226 > 100 µM | CCRF-CEM > 100 µM

N#C[BH2-][n+]1ccc(C(=O)NNC(c2ccccc2)C(F)(F)F)cc1 (centres undefined)
inactive: HOP-62 97.7 µM | OVCAR-5 > 100 µM | EKVX > 100 µM | SNB-75 > 100 µM | BT-549 > 100 µM | SK-MEL-28 > 100 µM | NCI-H23 31.7 µM | LOX IMVI > 100 µM | ACHN > 100 µM | SK-MEL-2 > 100 µM | TK-10 > 100 µM | SF-295 > 100 µM | Malme-3M > 100 µM | U-251 > 100 µM | M14 > 100 µM | NCI-H226 > 100 µM | CCRF-CEM > 100 µM

O=Cc1ccc2c(c1)CC1(C2)Cc2ccc(C=O)cc2C1
inactive: HOP-62 14.7 µM | OVCAR-5 > 77.1 µM | EKVX 28.2 µM | SNB-75 61.8 µM | SK-MEL-28 23.7 µM | NCI-H23 17.6 µM | LOX IMVI 6.07 µM | ACHN 24.4 µM | OVCAR-3 13.9 µM | SK-MEL-2 11.8 µM | TK-10 8.81 µM | SF-295 > 45.2 µM | Malme-3M 20 µM | U-251 8.69 µM | M14 6.14 µM | NCI-H226 22.8 µM | T47D 25.8 µM | SK-OV-3 55.2 µM | CCRF-CEM 1.68 µM

CC1(C)CC(=O)C(=CNC(N)=S)C(=O)C1
inactive: HOP-62 > 100 µM | OVCAR-5 > 100 µM | EKVX > 100 µM | SNB-75 > 100 µM | BT-549 > 100 µM | SK-MEL-28 > 100 µM | NCI-H23 > 100 µM | LOX IMVI > 100 µM | ACHN > 100 µM | OVCAR-3 > 100 µM | SK-MEL-2 > 100 µM | TK-10 > 100 µM | SF-295 > 100 µM | U-251 > 100 µM | M14 > 100 µM | NCI-H226 > 100 µM | SK-OV-3 > 100 µM | CCRF-CEM > 100 µM

CC(=O)NC1(c2cc3ccccc3s2)CCCCCC1
inactive: HOP-62 46.7 µM | OVCAR-5 36.7 µM | EKVX 19.1 µM | SNB-75 31 µM | BT-549 58.9 µM | SK-MEL-28 54 µM | NCI-H23 35.2 µM | LOX IMVI 47.9 µM | ACHN 43.9 µM | OVCAR-3 21.6 µM | SK-MEL-2 33 µM | TK-10 47.5 µM | SF-295 33.7 µM | U-251 40.8 µM | M14 42 µM | NCI-H226 42.3 µM | SK-OV-3 37.1 µM | CCRF-CEM 20.7 µM

COC1(CC[C@@H](C)COC2OC(CO)C(O)C(O)C2O)OC2C[C@H]3[C@@H]4CC[C@H]5C[C@@H](OC6OC(CO)C(OC7OC(CO)C(O)C(O)C7O)C(O)C6OC6OC(C)C(O)C(O)C6O)[C@H](O)C[C@]5(C)[C@H]4CC[C@]3(C)C2[C@@H]1C (some centres undefined)
inactive: HOP-62 1.89 µM | OVCAR-5 2.17 µM | EKVX 2.14 µM | SNB-75 1.77 µM | SK-MEL-28 1.88 µM | LOX IMVI 1.79 µM | ACHN 1.77 µM | OVCAR-3 1.82 µM | SK-MEL-2 2.12 µM | TK-10 2.12 µM | SF-295 1.8 µM | Malme-3M 1.85 µM | U-251 1.87 µM | M14 1.84 µM | NCI-H226 2.22 µM | T47D 3.04 µM | SK-OV-3 1.87 µM | CCRF-CEM 1.88 µM

CCOC(=O)NC(=S)c1ccc(O)c2ccccc12
inactive: HOP-62 77.1 µM | OVCAR-5 > 100 µM | EKVX 27.9 µM | BT-549 23 µM | SK-MEL-28 32.4 µM | NCI-H23 55.5 µM | LOX IMVI 28.6 µM | ACHN 80.5 µM | OVCAR-3 49.8 µM | SK-MEL-2 > 100 µM | SF-295 46.3 µM | Malme-3M 33.1 µM | U-251 > 100 µM | M14 70.1 µM | T47D > 100 µM | SK-OV-3 45.1 µM | CCRF-CEM 8.63 µM

COc1cc(Br)cc2c1O[C@H]1C(=O)CC3CC21CCN3C (some centres undefined)
inactive: HOP-62 > 100 µM | OVCAR-5 > 100 µM | EKVX 61 µM | BT-549 48.4 µM | SK-MEL-28 > 100 µM | NCI-H23 24.3 µM | LOX IMVI 32.9 µM | ACHN 57.1 µM | OVCAR-3 > 100 µM | SK-MEL-2 > 100 µM | SF-295 > 100 µM | Malme-3M > 100 µM | M14 > 100 µM | T47D 23.2 µM | SK-OV-3 > 100 µM | CCRF-CEM 4.09 µM

Clc1ccccc1NN(Cc1ccncc1)c1ccccc1Cl
inactive: HOP-62 15.8 µM | OVCAR-5 17.5 µM | EKVX 14 µM | SNB-75 17.5 µM | BT-549 19.1 µM | SK-MEL-28 20.3 µM | NCI-H23 15.6 µM | LOX IMVI 16.7 µM | ACHN 16.6 µM | OVCAR-3 13.5 µM | SK-MEL-2 14.4 µM | SF-295 16.7 µM | Malme-3M 17.7 µM | U-251 13.5 µM | M14 17.7 µM | NCI-H226 21 µM | SK-OV-3 28.1 µM

CC(=O)CCn1c(=S)sc2ccccc21
inactive: HOP-62 > 100 µM | OVCAR-5 > 100 µM | EKVX > 100 µM | SNB-75 > 100 µM | BT-549 > 100 µM | SK-MEL-28 > 100 µM | NCI-H23 > 100 µM | LOX IMVI > 100 µM | ACHN > 100 µM | OVCAR-3 > 100 µM | SK-MEL-2 > 100 µM | TK-10 > 100 µM | SF-295 > 100 µM | U-251 > 100 µM | M14 > 100 µM | NCI-H226 > 100 µM | SK-OV-3 86.9 µM | CCRF-CEM 25.6 µM

O=C(O)c1ccc(Nc2nc3ccccc3nc2C(=O)O)cc1
inactive: HOP-62 > 100 µM | OVCAR-5 > 100 µM | EKVX > 100 µM | SNB-75 > 100 µM | BT-549 > 100 µM | SK-MEL-28 > 100 µM | NCI-H23 > 100 µM | ACHN > 100 µM | OVCAR-3 > 100 µM | SK-MEL-2 > 100 µM | TK-10 > 100 µM | SF-295 > 100 µM | Malme-3M > 100 µM | U-251 > 100 µM | M14 > 100 µM | T47D > 100 µM | SK-OV-3 > 100 µM | CCRF-CEM > 100 µM

O=C(Cn1cc(-c2ccccc2)nn1)NC1CCCC1
inactive: HOP-62 > 100 µM | OVCAR-5 > 100 µM | EKVX > 100 µM | SNB-75 56.2 µM | BT-549 > 100 µM | SK-MEL-28 > 100 µM | NCI-H23 > 100 µM | LOX IMVI > 100 µM | ACHN > 100 µM | SK-MEL-2 > 100 µM | TK-10 > 100 µM | SF-295 > 100 µM | Malme-3M > 100 µM | U-251 > 100 µM | M14 > 100 µM | NCI-H226 > 100 µM | CCRF-CEM > 100 µM

CCc1cc2c(cc1C(=O)CCC(=O)O)CC1(C2)Cc2cc(CC)c(C(=O)CCC(=O)O)cc2C1
inactive: HOP-62 > 100 µM | OVCAR-5 > 100 µM | EKVX > 100 µM | SNB-75 50.5 µM | SK-MEL-28 35.6 µM | NCI-H23 > 100 µM | LOX IMVI > 100 µM | ACHN > 100 µM | OVCAR-3 > 100 µM | SK-MEL-2 99.8 µM | TK-10 > 100 µM | SF-295 > 100 µM | Malme-3M 38.5 µM | U-251 > 100 µM | M14 > 100 µM | NCI-H226 > 100 µM | T47D > 100 µM | SK-OV-3 > 100 µM | CCRF-CEM 32.2 µM
